Holding throughout (format): cell-based
In assay [1] the test system is HEK293 clonal cell line overexpressing APOL1 G1. Kind of assay: APOL1 G1 HEK293 cell rescue assay (Example B3). To be noted: geometric mean of at least 2 runs, † = single run, ¥ = concentration at 50% rescue estimated (no sigmoidal curve). A digest of the protocol: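 Rescue of cell death caused by APOL1 G1 overexpression was measured in a clonal HEK293 line. Compounds were tested in duplicate on one plate, and EC50s were geometric means across at least two runs on different days. Some values are estimated 50%-rescue concentrations where curve fitting failed.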

Assay [2] has as its system Trypanosoma brucei Lister 427 VSG221 with APOL1 G2 recombinant protein. Kind of assay: APOL1 G2 trypanosome cell rescue assay (Example B5). The following applies: geometric mean of at least 2 assay runs, † = single assay run. Here is the method:
(§1) APOL1 G0/G1/G2 viability assay for measurement of cytotoxicity reversal by compound in trypanosomes (APOL1 G0/G1/G2 trypanosome cell rescue assay).
(§2) APOL1 protein expression and purification. The mature from of APOL1 proteins, residues 28-398, were expressed from a pET28a vector with an N-terminal His-tag and TEV cleavage site. Proteins were expressed in Escherichia coli BL21-CodonPlus (DE3)-RIPL cells. Liter cultures of terrific broth were grown at 37° C. until an OD600 of ˜0.8 was reached and then induced with isopropyl β-D-1-thiogalactopyranoside (IPTG; final concentration of 500 μM). Afterwards, cultures were grown for 3 hours at 37° C. For protein purification, cell pellets were resuspended in lysis buffer (50 mM Tris, pH 8.5, 5 mM EDTA, 0.5 mM DTT, 0.5 mM PMSF) supplemented with a cocktail of protease inhibitors. Cells were lysed by sonication, centrifuged, and the resulting pellet was collected. The homogenized pellet was resuspended in wash buffer (50 mM Tris, pH 8.5, 0.5 M NaCl, 5 mM EDTA, 0.5 mM DTT, 0.5 mM PMSF, protease inhibitor cocktail) and collected by centrifugation. Inclusion body dissolution was then conducted as previously reported (PNAS 112(9) (2015) 2894-2899; www.pnas.org/cgi/doi/10.1073/pnas.1421953112; herein incorporated by reference in its entirety). The solubilized APOL1 protein was applied to a nickel column (HisTrap, GE Life Sciences) preequilibrated in buffer A (50 mM Tris, pH 8.5, 0.15 M NaCl, 1% zwittergent 3-14, protease inhibitor cocktail). The resin was washed with buffer B (50 mM Tris, pH 8.5, 0.15 M NaCl, 0.1% DDM) and TEV cleavage was conducted on column overnight. Afterwards, the column was washed with buffer B, followed by His-washing buffer (50 mM Tris, pH 8.5, 0.15 M NaCl, 0.1% DDM, 10 mM imidazole). The protein was then removed from the resin using His-elution buffer (50 mM Tris, pH 8.5, 0.15 M NaCl, 0.1% DDM, 250 mM imidazole). The sample was further purified by size exclusion chromatography using a Superdex 200 Increase column (GE Life Sciences) in 50 mM Tris, pH 8.5, 0.15 M NaCl, and 0.1% DDM buffer. All APOL1 proteins (G0, G1, and G2) were generated at Viva Biotech (Shanghai) Ltd.
(§3) Modified HMI-9 media preparation (https://tryps.rockefeller.edu/trypsru2_culture_media_preparation.html; herein incorporated by reference in its entirety). Trypanosomes were cultured in modified HMI-9 media consisting of IMDM (ThermoFisher, 12440053), 10% heat-inactivated FBS (Gibco, 10082-147), 10% Serum Plus (Sigma-Aldrich, 14008C), 1×HMI-9 supplement stock, and 1% hypoxanthine stock. The 10×HMI-9 supplement stock was made by dissolving 280 mg bathocuproine disulfonic acid (Sigma-Aldrich, 146625), 1820 mg cysteine (add after bathocuproine) (Sigma-Aldrich, 30089), 1100 mg pyruvic acid (Sigma-Aldrich, 107360), 100 mg uracil (Sigma-Aldrich, U0750), 100 mg cytosine (Sigma-Aldrich, C3506) and 140 μL 2-mercaptoethanol (Sigma-Aldrich, M3148) in 1000 mL of water. The resulting solution was aliquoted and stored at −20° C. The hypoxanthine stock was made by dissolving 4 g of NaOH into 1000 mL of water. Afterwards, 13.6 g hypoxanthine (Sigma-Aldrich, H9377) was added to this mixture. The resulting solution was aliquoted and stored at −20° C.
(§4) Assay Setup. Trypanosoma brucei Lister 427 VSG221 (ATCC, PRA-382) cells were cultured in modified HMI-9 media. All experiments were performed in 384-well, white, solid bottom, tissue culture treated plates (Greiner, 781080). Assay ready plates were generated with duplicate 11-point compound dilution series that consisted of 2-fold stepwise dilutions (0.4% DMSO final). To each well, was added 20 μL of 2 μg/mL of APOL1 G0, G1, or G2 recombinant protein in modified HMI-9 media using a MultiDrop Combi (final APOL1 protein concentration=[…]). Trypanosomes were counted using a hemacytometer and diluted in modified HMI-9 media to a concentration of 1.25×10^4 cell/mL. […]

The subject of assay [3] is Trypanosoma brucei Lister 427 VSG221 with APOL1 G1 recombinant protein. Kind of assay: APOL1 G1 trypanosome cell rescue assay (Example B5). The following applies: geometric mean of at least 2 assay runs, † = single assay run. On the procedure:
as §1, §2, §3, §4

In assay [4] the test system is Trypanosoma brucei Lister 427 VSG221 with APOL1 G0 recombinant protein. As to the kind of experiment: APOL1 G0 trypanosome cell rescue assay (Example B5). The following applies: geometric mean of at least 2 assay runs, † = single assay run. On the procedure:
as §1, §2, §3, §4

Assay [5] has as its system HEK293 cells overexpressing APOL1 G2. As to the kind of experiment: APOL1 G2 HEK293 cell rescue assay (reversal of cell death caused by overexpression of APOL1). The following applies: geometric mean of at least 2 assay runs, † = single assay run. A digest of the protocol: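 Each compound tested in duplicate wells on one plate per run, with values usually the geometric mean across at least two runs on different days, occasionally from one run only. Read-out: concentration giving half-maximal rescue of APOL1 G2 overexpression-induced death of HEK293 cells.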

The mark [6] stands for this setting: HEK293 clonal line overexpressing APOL1 G1.
[7] abbreviates: read-out: APOL1 G2 Trypanosome Rescue EC50, Trypanosoma brucei Lister 427 VSG221 with APOL1 G2 recombinant protein, 20 hours, CellTiter-Glo.
Setting [8] is: read-out: APOL1 G1 Trypanosome Rescue EC50, Trypanosoma brucei Lister 427 VSG221 with APOL1 G1 recombinant protein, 20 hours, CellTiter-Glo.
Setting [9] is: read-out: APOL1 G0 Trypanosome Rescue EC50, Trypanosoma brucei Lister 427 VSG221 with APOL1 G0 recombinant protein, 20 hours, CellTiter-Glo.
Setting [10] is: Homo sapiens, HEK293, HEK293 clonal line overexpressing APOL1 G1.
Setting [11] is: Trypanosoma brucei, 20 h, read-out: APOL1 G2 Trypanosome Rescue EC50, Trypanosoma brucei Lister 427 VSG221 with APOL1 G2 recombinant protein, 20 hours, CellTiter-Glo.
Setting [12] is: Trypanosoma brucei, 20 h, read-out: APOL1 G1 Trypanosome Rescue EC50, Trypanosoma brucei Lister 427 VSG221 with APOL1 G1 recombinant protein, 20 hours, CellTiter-Glo.
The mark [13] stands for this setting: Trypanosoma brucei, 20 h, read-out: APOL1 G0 Trypanosome Rescue EC50, Trypanosoma brucei Lister 427 VSG221 with APOL1 G0 recombinant protein, 20 hours, CellTiter-Glo.
[14] abbreviates: Homo sapiens, HEK293, HEK293 overexpressing APOL1 G2.

The structures appear in SMILES notation. Like-named read-outs stand apart in the source and are kept apart here.

The term EC50 denotes the concentration needed to bring the measured effect to its halfway point. As for `CN1C(=O)C2(CCN(CCOc3ccc(C4(S(C)(=O)=O)CC(O)C4)cc3)CC2)c2cc(C(F)F)ccc21` (single isomer, unassigned) [Compound 279, 5-(difluoromethyl)-1-methyl-1′-(2-{4-[(trans) or (cis)-3-hydroxy-1-methanesulfonylcyclobutyl]phenoxy}ethyl)-1,2-dihydrospiro[indole-3,4′-piperidin]-2-one], the EC50 in assay [1] (setting [6]) is 234 nM; in assay [2] (setting [7]), 83.1 nM; in assay [3] (setting [8]) it was 283 nM; in assay [4] (setting [9]), 213 nM; in assay [5] (HEK293 overexpressing APOL1 G2), 60 nM.
`CS(=O)(=O)C1(c2ccc(OCCN3CCC4(CC3)C(=O)Nc3ccc(C(F)F)cc34)cc2)CC(O)C1` (single isomer, unassigned) [Compound 282, 5-(difluoromethyl)-1′-(2-{4-[(trans) or (cis)-3-hydroxy-1-methanesulfonylcyclobutyl]phenoxy}ethyl)-1,2-dihydrospiro[indole-3,4′-piperidin]-2-one]: the EC50 in assay [1] (setting [6]) is 383 nM; in assay [2] (setting [7]), 59.8 nM; in assay [3] (setting [8]), 230 nM; in assay [4] (setting [9]), 181 nM; in assay [5] (HEK293 overexpressing APOL1 G2), 130 nM.
In the case of `O=C1CCc2cc(OCCN3CCC4(CC3)C(=O)Nc3ccc(C(F)F)cc34)cnc2N1C1CC(CO)C1` (single isomer, unassigned) [Compound 309, 5-(difluoromethyl)-1′-[2-({7-oxo-8-[(cis) or (trans)-3-(hydroxymethyl)cyclobutyl]-5,6,7,8-tetrahydro-1,8-naphthyridin-3-yl}oxy)ethyl]-1,2-dihydrospiro[indole-3,4′-piperidin]-2-one], the EC50 in assay [1] (setting [10]) was 134 nM; in assay [2] (setting [11]), 23.4 nM; in assay [3] (setting [12]), 70.6 nM; in assay [4] (setting [13]) it was 58.2 nM; in assay [5] (setting [14]) it was 55.9 nM.
As for `CC1(O)CC(CN2C(=O)CCc3cc(OCCN4CCC5(CC4)C(=O)Nc4ccc(C(F)F)cc45)cnc32)C1` (single isomer, unassigned) [Compound 311, 5-(difluoromethyl)-1′-{2-[(7-oxo-8-{[(cis) or (trans)-3-hydroxy-3-methylcyclobutyl]methyl}-5,6,7,8-tetrahydro-1,8-naphthyridin-3-yl)oxy]ethyl}-1,2-dihydrospiro[indole-3,4′-piperidin]-2-one], the EC50 in assay [1] (setting [10]) was 100 nM; in assay [2] (setting [11]), 13.8 nM; in assay [3] (setting [12]) it was 50.3 nM; in assay [4] (setting [13]), 37.4 nM; in assay [5] (setting [14]), 38.3 nM.
Take `CC1(O)CC(CN2C(=O)CCc3cc(OCCN4CCC5(CC4)C(=O)Nc4ccc(C(F)F)cc45)cnc32)C1` (single isomer, unassigned) [Compound 312, 5-(difluoromethyl)-1′-{2-[(7-oxo-8-{[(trans) or (cis)-3-hydroxy-3-methylcyclobutyl]methyl}-5,6,7,8-tetrahydro-1,8-naphthyridin-3-yl)oxy]ethyl}-1,2-dihydrospiro[indole-3,4′-piperidin]-2-one]: the EC50 in assay [1] (setting [6]) was 66.5 nM; in assay [2] (setting [7]), 10.1 nM; in assay [3] (setting [8]), 34.4 nM; in assay [4] (setting [9]), 28.2 nM; in assay [5] (HEK293 overexpressing APOL1 G2), 24.3 nM.
On to `CC1(O)CC(CN2C(=O)CCc3cc(OCCN4CCC5(CC4)C(=O)Nc4ccc(Cl)cc45)cnc32)C1` (single isomer, unassigned) [Compound 313, 5-chloro-1′-{2-[(7-oxo-8-{[(cis) or (trans)-3-hydroxy-3-methylcyclobutyl]methyl}-5,6,7,8-tetrahydro-1,8-naphthyridin-3-yl)oxy]ethyl}-1,2-dihydrospiro[indole-3,4′-piperidin]-2-one], for which the concentration for a half-maximal effect (EC50) was 135 nM in assay [1] (setting [6]); 20.2 nM in assay [2] (setting [11]); 71.8 nM in assay [3] (setting [8]); 54.5 nM in assay [4] (setting [13]); 63.3 nM in assay [5] (HEK293 overexpressing APOL1 G2).
For `CC1(O)CC(c2ncc(OCCN3CCC4(CC3)C(=O)Nc3ccc(Cl)cc34)cn2)C1` (single isomer, unassigned) [Compound 392, 5-chloro-1′-[2-({2-[(trans) or (cis)-3-hydroxy-3-methylcyclobutyl)pyrimidin-5-yl}oxy)ethyl]-1,2-dihydrospiro[indole-3,4′-piperidin]-2-one], the EC50 in assay [1] (setting [10]) is 89.9 nM; in assay [2] (setting [7]), 28.5 nM; in assay [3] (setting [8]), 79.4 nM; in assay [4] (setting [9]) it was 70 nM; in assay [5] (HEK293 overexpressing APOL1 G2), 27.1 nM.
In the case of `O=C1CCc2cc(OCCN3CCC4(CC3)C(=O)Nc3ccc(Cl)cc34)cnc2N1[C@H]1C[C@](O)(C2CC2)C1` (single isomer, unassigned) [Compound 398, 5-chloro-1′-[2-({7-oxo-8-[(cis)-3-cyclopropyl-3-hydroxycyclobutyl]-5,6,7,8-tetrahydro-1,8-naphthyridin-3-yl}oxy)ethyl]-1,2-dihydrospiro[indole-3,4′-piperidin]-2-one], the EC50 in assay [1] (setting [10]) is 374 nM; in assay [2] (setting [11]) it was 18 nM; in assay [3] (setting [12]), 52.2 nM; in assay [4] (setting [13]) it was 53.6 nM; in assay [5] (setting [14]) it was 20.1 nM.

The record behind these values is US12344610B2, “APOL1 inhibitors and methods of use” (Maze Therapeutics, Inc., priority 2022, dated 2025).
